Reference: publication PMC6222646, “HIV-1 Integrase-Targeted Short Peptides Derived from a Viral Protein R Sequence” (Molecules : A Journal of Synthetic Chemistry and Natural …, 2018)
“And” between values parts separate entries of the source, which are not always exact repeats. Identical values can stand only once. Where a SMILES comes first, the peptide text is derived from it. [ ]: non-standard residue; d: D form. Bpa = N[C@@H](Cc1ccc(C(=O)c2ccccc2)cc1)C(=O)O

Assays:
HIV-1 integrase (IN) [1] = biological target: T1, HIV-1 integrase (IN) (Human immunodeficiency virus type 1 group M subtype B, UniProt P12497); experiment: In vitro integrase catalytic assay, strand transfer (ST); format: biochemical; settings: 400 nM IN, 20 nM 32P-labeled pre-cleaved 19T/21B DNA, 37 °C, 2 h
Protocol: (§1) IN reactions were performed as previously described. […] Reactions were performed at 37 °C (2 h) and quenched by the addition of an equal volume of loading buffer (formamide containing 1% sodium dodecyl sulfate, 0.25% bromophenol blue, and xylene cyanol). Reaction products were separated in 16% polyacrylamide denaturing sequencing gels. Dried gels were visualized using a Typhoon 8600 instrument (GE Healthcare, Chicago, IL, USA). Densitometric analyses were performed using ImageQuant 5.1 software (GE Healthcare, Chicago, IL, USA). Data analyses (linear regression, 50% inhibitory concentration [IC50] determination, standard deviation [SD]) were performed from at least 3 independent determinations using Prism 5.0c software from GraphPad (La Jolla, CA, USA). To assay 3′-P inhibitory potency, reactions were carried out with [γ-^32P]-labeled full-length oligonucleotide 21T ([…]) annealed to the complementary oligonucleotide 21B ([…]). Formation of the shorter processed 19T products was monitored and quantified to assess enzyme performance and inhibitor potency. The ST reactions were carried out with the [γ-^32P]-labeled pre-cleaved oligonucleotide 19T ([…]) annealed to the complementary oligonucleotide 21B ([…]) and formation of integration products (longer and slower migrating than the starting 19T substrate) was monitored to assess enzyme performance and inhibitor potency.

HIV-1 integrase (IN) [2] = biological target: T1, HIV-1 integrase (IN); experiment: In vitro integrase catalytic assay, 3'-processing (3'-P); format: biochemical; settings: 400 nM IN, 20 nM 32P-labeled 21T/21B DNA, 37 °C, 2 h
Protocol: as §1

Compound	IC50 (HIV-1 integrase (IN) [1])	IC50 (HIV-1 integrase (IN) [2]) [µM]
CC[C@H](C)[C@H](NC(=O)[C@H](CCCNC(=N)N)NC(=O)[C@H](Cc1ccccc1)NC(=O)[C@H](Cc1c[nH]cn1)NC(=O)[C@@H](NC(=O)[C@@H](N)Cc1ccccc1)[C@@H](C)CC)C(=O)NCC(N)=O [Peptide 1b, FIHFRIG-amide] (H-FIHFRIG-NH2)	7.3 ± 0.8 µM	31.5 ± 6
CC[C@H](C)[C@H](NC(=O)[C@H](CCCNC(=N)N)NC(=O)[C@H](Cc1ccccc1)NC(=O)[C@H](Cc1c[nH]cn1)NC(=O)[C@@H](NC(=O)[C@H](Cc1ccccc1)NC(C)=O)[C@@H](C)CC)C(=O)NCC(N)=O [Peptide 1c, Ac-FIHFRIG-amide] (Ac-FIHFRIG-NH2)	4.7 ± 0.3 µM	23.5 ± 3
CC[C@H](C)[C@H](NC(=O)[C@H](CCCNC(=N)N)NC(=O)[C@H](Cc1ccccc1)NC(=O)[C@H](Cc1c[nH]cn1)NC(=O)[C@@H](NC(=O)[C@@H](N)Cc1ccccc1)[C@@H](C)CC)C(=O)N[C@@H](C)C(=O)O [Peptide 2a, FIHFRIA] (H-FIHFRIA-OH)	34.7 ± 2.3 µM	> 111
CC[C@H](C)[C@H](NC(=O)[C@H](CCCNC(=N)N)NC(=O)[C@H](Cc1ccccc1)NC(=O)[C@H](Cc1c[nH]cn1)NC(=O)[C@@H](NC(=O)[C@@H](N)Cc1ccccc1)[C@@H](C)CC)C(=O)N[C@@H](C)C(N)=O [Peptide 2b, FIHFRIA-amide] (H-FIHFRIA-NH2)	60.6 ± 8 µM	> 111
CC[C@H](C)[C@H](NC(=O)[C@H](CCCNC(=N)N)NC(=O)[C@H](Cc1ccccc1)NC(=O)[C@H](Cc1c[nH]cn1)NC(=O)[C@@H](NC(=O)[C@H](Cc1ccccc1)NC(C)=O)[C@@H](C)CC)C(=O)N[C@@H](C)C(N)=O [Peptide 2c, Ac-FIHFRIA-amide] (Ac-FIHFRIA-NH2)	30.4 ± 0.7 µM	74.5 ± 7
CC[C@H](C)[C@H](NC(=O)[C@@H](N)Cc1ccccc1)C(=O)N[C@@H](Cc1c[nH]cn1)C(=O)N[C@@H](Cc1ccccc1)C(=O)N[C@@H](CCCNC(=N)N)C(=O)N[C@@H](C)C(=O)NCC(=O)O [Peptide 3a, FIHFRAG] (H-FIHFRAG-OH)	22.4 ± 1.7 µM	66.5 ± 7
CC[C@H](C)[C@H](NC(=O)[C@@H](N)Cc1ccccc1)C(=O)N[C@@H](Cc1c[nH]cn1)C(=O)N[C@@H](Cc1ccccc1)C(=O)N[C@@H](CCCNC(=N)N)C(=O)N[C@@H](C)C(=O)NCC(N)=O [Peptide 3b, FIHFRAG-amide] (H-FIHFRAG-NH2)	> 111 µM	> 111
CC[C@H](C)[C@H](NC(=O)[C@H](Cc1ccccc1)NC(C)=O)C(=O)N[C@@H](Cc1c[nH]cn1)C(=O)N[C@@H](Cc1ccccc1)C(=O)N[C@@H](CCCNC(=N)N)C(=O)N[C@@H](C)C(=O)NCC(N)=O [Peptide 3c, Ac-FIHFRAG-amide] (Ac-FIHFRAG-NH2)	28 ± 4 µM	208 ± 12
CC[C@H](C)[C@H](NC(=O)[C@H](C)NC(=O)[C@H](Cc1ccccc1)NC(=O)[C@H](Cc1c[nH]cn1)NC(=O)[C@@H](NC(=O)[C@@H](N)Cc1ccccc1)[C@@H](C)CC)C(=O)NCC(=O)O [Peptide 4a, FIHFAIG] (H-FIHFAIG-OH)	> 111 µM	> 111
CC[C@H](C)[C@H](NC(=O)[C@H](C)NC(=O)[C@H](Cc1ccccc1)NC(=O)[C@H](Cc1c[nH]cn1)NC(=O)[C@@H](NC(=O)[C@@H](N)Cc1ccccc1)[C@@H](C)CC)C(=O)NCC(N)=O [Peptide 4b, FIHFAIG-amide] (H-FIHFAIG-NH2)	> 111 µM	> 111
CC[C@H](C)[C@H](NC(=O)[C@H](C)NC(=O)[C@H](Cc1ccccc1)NC(=O)[C@H](Cc1c[nH]cn1)NC(=O)[C@@H](NC(=O)[C@H](Cc1ccccc1)NC(C)=O)[C@@H](C)CC)C(=O)NCC(N)=O [Peptide 4c, Ac-FIHFAIG-amide] (Ac-FIHFAIG-NH2)	81 ± 9 µM	> 333
CC[C@H](C)[C@H](NC(=O)[C@H](CCCNC(=N)N)NC(=O)[C@H](C)NC(=O)[C@H](Cc1c[nH]cn1)NC(=O)[C@@H](NC(=O)[C@@H](N)Cc1ccccc1)[C@@H](C)CC)C(=O)NCC(=O)O [Peptide 5a, FIHARIG] (H-FIHARIG-OH)	46.6 ± 6.5 µM	> 111
CC[C@H](C)[C@H](NC(=O)[C@H](CCCNC(=N)N)NC(=O)[C@H](C)NC(=O)[C@H](Cc1c[nH]cn1)NC(=O)[C@@H](NC(=O)[C@@H](N)Cc1ccccc1)[C@@H](C)CC)C(=O)NCC(N)=O [Peptide 5b, FIHARIG-amide] (H-FIHARIG-NH2)	> 111 µM	> 111
CC[C@H](C)[C@H](NC(=O)[C@H](CCCNC(=N)N)NC(=O)[C@H](C)NC(=O)[C@H](Cc1c[nH]cn1)NC(=O)[C@@H](NC(=O)[C@H](Cc1ccccc1)NC(C)=O)[C@@H](C)CC)C(=O)NCC(N)=O [Peptide 5c, Ac-FIHARIG-amide] (Ac-FIHARIG-NH2)	117 ± 10 µM	> 333
CC[C@H](C)[C@H](NC(=O)[C@H](CCCNC(=N)N)NC(=O)[C@H](Cc1ccccc1)NC(=O)[C@H](C)NC(=O)[C@@H](NC(=O)[C@@H](N)Cc1ccccc1)[C@@H](C)CC)C(=O)NCC(=O)O [Peptide 6a, FIAFRIG] (H-FIAFRIG-OH)	6.7 ± 1 µM	17.4 ± 2
CC[C@H](C)[C@H](NC(=O)[C@H](CCCNC(=N)N)NC(=O)[C@H](Cc1ccccc1)NC(=O)[C@H](C)NC(=O)[C@@H](NC(=O)[C@@H](N)Cc1ccccc1)[C@@H](C)CC)C(=O)NCC(N)=O [Peptide 6b, FIAFRIG-amide] (H-FIAFRIG-NH2)	35 ± 3.2 µM	95.4 ± 5
CC[C@H](C)[C@H](NC(=O)[C@H](CCCNC(=N)N)NC(=O)[C@H](Cc1ccccc1)NC(=O)[C@H](C)NC(=O)[C@@H](NC(=O)[C@H](Cc1ccccc1)NC(C)=O)[C@@H](C)CC)C(=O)NCC(N)=O [Peptide 6c, Ac-FIAFRIG-amide] (Ac-FIAFRIG-NH2)	3.5 ± 0.3 µM	94 ± 13
CC[C@H](C)[C@H](NC(=O)[C@H](CCCNC(=N)N)NC(=O)[C@H](Cc1ccccc1)NC(=O)[C@H](Cc1c[nH]cn1)NC(=O)[C@H](C)NC(=O)[C@@H](N)Cc1ccccc1)C(=O)NCC(=O)O [Peptide 7a, FAHFRIG] (H-FAHFRIG-OH)	73.5 ± 6 µM	> 111
CC[C@H](C)[C@H](NC(=O)[C@H](CCCNC(=N)N)NC(=O)[C@H](Cc1ccccc1)NC(=O)[C@H](Cc1c[nH]cn1)NC(=O)[C@H](C)NC(=O)[C@@H](N)Cc1ccccc1)C(=O)NCC(N)=O [Peptide 7b, FAHFRIG-amide] (H-FAHFRIG-NH2)	> 111 µM	> 111
CC[C@H](C)[C@H](NC(=O)[C@H](CCCNC(=N)N)NC(=O)[C@H](Cc1ccccc1)NC(=O)[C@H](Cc1c[nH]cn1)NC(=O)[C@H](C)NC(=O)[C@H](Cc1ccccc1)NC(C)=O)C(=O)NCC(N)=O [Peptide 7c, Ac-FAHFRIG-amide] (Ac-FAHFRIG-NH2)	127 ± 14 µM	> 333
CC[C@H](C)[C@H](NC(=O)[C@H](C)N)C(=O)N[C@@H](Cc1c[nH]cn1)C(=O)N[C@@H](Cc1ccccc1)C(=O)N[C@@H](CCCNC(=N)N)C(=O)N[C@H](C(=O)NCC(=O)O)[C@@H](C)CC [Peptide 8a, AIHFRIG] (H-AIHFRIG-OH)	22.7 ± 1.4 µM	86.3 ± 5
CC[C@H](C)[C@H](NC(=O)[C@H](C)N)C(=O)N[C@@H](Cc1c[nH]cn1)C(=O)N[C@@H](Cc1ccccc1)C(=O)N[C@@H](CCCNC(=N)N)C(=O)N[C@H](C(=O)NCC(N)=O)[C@@H](C)CC [Peptide 8b, AIHFRIG-amide] (H-AIHFRIG-NH2)	> 111 µM	> 111
CC[C@H](C)[C@H](NC(=O)[C@H](C)NC(C)=O)C(=O)N[C@@H](Cc1c[nH]cn1)C(=O)N[C@@H](Cc1ccccc1)C(=O)N[C@@H](CCCNC(=N)N)C(=O)N[C@H](C(=O)NCC(N)=O)[C@@H](C)CC [Peptide 8c, Ac-AIHFRIG-amide] (Ac-AIHFRIG-NH2)	46 ± 8 µM	> 333
CC[C@H](C)[C@H](NC(=O)[C@@H](N)Cc1ccccc1)C(=O)N[C@@H](Cc1c[nH]cn1)C(=O)N[C@@H](Cc1ccccc1)C(=O)N[C@@H](CCCNC(=N)N)C(=O)N[C@@H](Cc1ccc(C(=O)c2ccccc2)cc1)C(=O)NCC(=O)O [Peptide 9a, FIHFRBG] (H-FIHFR[Bpa]G-OH)	4 µM and 4.3 µM	20 ± 3
CC[C@H](C)[C@H](NC(=O)[C@H](Cc1ccc(C(=O)c2ccccc2)cc1)NC(=O)[C@H](Cc1ccccc1)NC(=O)[C@H](Cc1c[nH]cn1)NC(=O)[C@@H](NC(=O)[C@@H](N)Cc1ccccc1)[C@@H](C)CC)C(=O)NCC(=O)O [Peptide 10a, FIHFBIG] (H-FIHF[Bpa]IG-OH)	~50 µM and 48 µM	> 333
CC[C@H](C)[C@H](NC(=O)[C@H](CCCNC(=N)N)NC(=O)[C@H](Cc1ccc(C(=O)c2ccccc2)cc1)NC(=O)[C@H](Cc1c[nH]cn1)NC(=O)[C@@H](NC(=O)[C@@H](N)Cc1ccccc1)[C@@H](C)CC)C(=O)NCC(=O)O [Peptide 11a, FIHBRIG] (H-FIH[Bpa]RIG-OH)	4.2 ± 0.7 µM	34 ± 6
CC[C@H](C)[C@H](NC(=O)[C@H](CCCNC(=N)N)NC(=O)[C@H](Cc1ccccc1)NC(=O)[C@H](Cc1ccc(C(=O)c2ccccc2)cc1)NC(=O)[C@@H](NC(=O)[C@@H](N)Cc1ccccc1)[C@@H](C)CC)C(=O)NCC(=O)O [Peptide 12a, FIBFRIG] (H-FI[Bpa]FRIG-OH)	2.2 ± 0.6 µM	6.5 ± 0.9
